Data: patent US11026426B2, “Oxadiazole and phenol derivatives as antibacterial and/or herbicidal agents” (NORTHERN ILLINOIS RESEARCH FOUNDATION, priority 2017, dated 2021)
Read-outs that look alike come from different tables or passages of the source.

Experiments:
Escherichia coli = assay: Antibacterial preliminary screening EC; type: cell-based; conditions: score 0-3; note: key: 0 represents no inhibition; 3 is comparable to commercial antibiotic control
Corynebacterium xerosis = assay: Antibacterial preliminary screening CX; type: cell-based; conditions: score 0-3; note: key: 0 represents no inhibition; 3 is comparable to commercial antibiotic control
Micrococcus luteus = assay: Antibacterial preliminary screening ML; type: cell-based; conditions: score 0-3; note: key: 0 represents no inhibition; 3 is comparable to commercial antibiotic control
Pseudomonas aeruginosa = assay: Antibacterial preliminary screening PA; type: cell-based; conditions: score 0-3; note: key: 0 represents no inhibition; 3 is comparable to commercial antibiotic control
AtIspD = AtIspD (Arabidopsis thaliana, UniProt P69834); assay: University of Hamburg photometric enzymatic inhibition assay AtIspD; type: biochemical
Experimental: (§1) Compounds were subjected to a photometric enzymatic assay to test for inhibition of the plant enzymes Arabidopsis thaliana IspD and IspF, and IspE from Lycopersicon esculentum.
The procedure for AtIspD enzymatic inhibition assay, was performed by making an assay mixture of 100 mM Tris hydrochloride at pH 8.0 with 10 mM MgCl2, 1 mM dithiothreitol, 2.5 mM potassium phosphoenol pyruvate, 2.1 mM CTP, 2 mM ATP, 1 mM of (2R,3S)-2,3-dihydroxy-4-oxopentyl phosphate, 460 μM NADH, 1.1% (v/v) DMSO, 0.4 U IspE, 1 U lactate dehydrogenase, 1 U pyruvate kinase and 2.4 mU IspD in 180 μL of solution. Solutions were incubated at 27° C. and monitored photometrically. By preparing the assay mixture with a large excess of IspE compared to IspD, any inhibition of IspE by the test inhibitor would be insignificant compared to IspD and therefore the rate of the reaction is determined by IspD activity.

Mycobacterium smegmatis = assay: Antibacterial preliminary screening MS; type: cell-based; conditions: score 0-3; note: key: 0 represents no inhibition; 3 is comparable to commercial antibiotic control
LeIspE = LeIspE (Solanum lycopersicum, UniProt P93841); assay: University of Hamburg photometric enzymatic inhibition assay LeIspE; type: biochemical, Lycopersicon esculentum
Experimental: as §1
The IspE assay conditions were very similar to the IspD assay in which the assay mixture was composed of 100 mM Tris hydrochloride at pH 8.0 with 10 mM MgCl2, 1 mM dithiothreitol, 2.5 mM potassium phosphoenol pyruvate, 2 mM ATP, 1 mM of 4-Diphosphocytidyl-2-C-methylerythritol, 460 μM NADH, 1.1% (v/v) DMSO, 2.4 mU IspE, 1 U lactate dehydrogenase, 1 U pyruvate kinase in 180 μL of solution. Solutions were incubated at 27° C. and monitored photometrically.

[1] = system: Corynebacterium pseudodiphtheriae; assay: Antibacterial preliminary screening CP; type: cell-based; conditions: score 0-3;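 note: 0 is no inhibition and 3 matches the commercial antibiotic control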
lettuce seeds = assay: Lettuce leaf assay; type: in vivo; parameters: key: 0 (no effect); 5(complete inhibition or bleaching); conditions: ranking 0-5
Excerpt: The lettuce leaf assay is a qualitative assay used to determine the relative effectiveness of the test compounds at inhibition of germination of seeds and root development as well as causing bleaching of leaves. Isoprenoid synthesis is vital in plants as isoprene-product gibberellins are a class of growth hormones in plants responsible for stimulating cell elongation and division. In addition, some carotenoids are involved in photosynthesis as components of the electron transport chain. MEP pathway inhibitors have the potential to prevent synthesis of these necessary cellular components and growth hormones resulting in inhibition of germination and root development as well as causing chlorosis, or bleaching in the leaves. The lettuce leaf assay, explores the effects of compounds as potential MEP pathway inhibitors by evaluating the effect on bleaching, root development, and germination of lettuce seeds, which all rely on isoprenoid biosynthesis. […] The assay is a qualitative assay and the effects are given rankings from 0 (no effect) to 5 (complete inhibition or bleaching). In this assay, compounds are dissolved in a volatile organic solvent and applied to filter paper in a petri dish. The solvent is allowed to evaporate and lettuce seeds are applied followed by the addition of 5 mL of water to obtain the necessary concentrations. Seeds are allowed to grow and they are observed on day 3 and day 4 for evaluation.

AtIspF = AtIspF (Arabidopsis thaliana, UniProt Q9CAK8); assay: University of Hamburg photometric enzymatic inhibition assay AtIspF; type: biochemical
Experimental: as §1
The IspF assay mixture conditions were as follows: 100 mM Tris hydrochloride at pH 8.0 with 10 mM MgCl2, 1 mM dithiothreitol, 2.5 mM potassium phosphoenol pyruvate, 2 mM ATP, 1 mM of 4-diphosphocytidyl-2C methylerythritol 2-phosphate, 460 μM NADH, 1.1% (v/v) DMSO, 0.5 U CMP kinase, 2.4 mU IspF, 1 U lactate dehydrogenase, 1 U pyruvate kinase in 180 μL of solution. Solutions were incubated at 27° C. and monitored photometrically.

[2] = system: Burkholderia thailandensis; type: cell-based; conditions: preliminary screening, score 0-3
Klebsiella pneumonia = assay: Antibacterial preliminary screening KP; type: cell-based; conditions: score 0-3; note: key: 0 represents no inhibition; 3 is comparable to commercial antibiotic control
[3] = molecular target: Lycopersicon esculentum IspE (LeIspE) (Solanum lycopersicum, UniProt P93841); assay: Thermal shift assay against LeIspE; type: binding
Bacillus cereus = assay: Antibacterial preliminary screening BC; type: cell-based; conditions: score 0-3; note: key: 0 represents no inhibition; 3 is comparable to commercial antibiotic control
[4] = molecular target: T1, Mycobacterium tuberculosis IspD (MtIspD) (Mycobacterium tuberculosis, UniProt P9WKG9); assay: Thermal shift assay against MtIspD; type: binding
T1 sequence (P9WKG9 1-231): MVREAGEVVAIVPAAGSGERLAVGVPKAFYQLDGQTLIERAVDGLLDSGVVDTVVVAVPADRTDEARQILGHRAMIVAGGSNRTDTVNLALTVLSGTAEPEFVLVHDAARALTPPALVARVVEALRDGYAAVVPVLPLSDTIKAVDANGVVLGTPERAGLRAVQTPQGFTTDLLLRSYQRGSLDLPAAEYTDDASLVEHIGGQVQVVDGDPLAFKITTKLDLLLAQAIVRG

AtIspF, sequence (Q9CAK8 53-231): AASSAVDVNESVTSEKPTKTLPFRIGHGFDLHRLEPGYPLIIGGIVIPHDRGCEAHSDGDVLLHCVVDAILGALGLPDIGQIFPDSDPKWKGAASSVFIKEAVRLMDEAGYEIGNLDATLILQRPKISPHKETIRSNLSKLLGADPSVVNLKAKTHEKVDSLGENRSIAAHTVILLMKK
AtIspD, sequence (P69834 62-302): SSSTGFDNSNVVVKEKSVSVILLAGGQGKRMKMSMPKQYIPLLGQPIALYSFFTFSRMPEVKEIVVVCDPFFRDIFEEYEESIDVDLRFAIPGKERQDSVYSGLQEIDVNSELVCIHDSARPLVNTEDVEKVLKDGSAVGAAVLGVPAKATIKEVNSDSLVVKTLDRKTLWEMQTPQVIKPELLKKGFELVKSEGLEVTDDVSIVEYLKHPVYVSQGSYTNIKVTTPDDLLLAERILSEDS
LeIspE, sequence (P93841 89-401): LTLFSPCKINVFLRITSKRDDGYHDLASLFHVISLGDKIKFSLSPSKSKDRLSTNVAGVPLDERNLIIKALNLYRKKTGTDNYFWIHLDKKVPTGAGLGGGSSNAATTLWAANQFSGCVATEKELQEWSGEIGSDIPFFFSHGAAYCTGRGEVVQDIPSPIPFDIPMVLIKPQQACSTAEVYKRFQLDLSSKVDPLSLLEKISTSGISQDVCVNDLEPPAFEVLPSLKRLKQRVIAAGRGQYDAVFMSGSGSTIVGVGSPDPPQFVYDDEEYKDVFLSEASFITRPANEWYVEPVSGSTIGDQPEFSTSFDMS
Lycopersicon esculentum IspE (LeIspE), sequence (P93841 89-401): as above

| Compound | EC score (Escherichia coli) | CX score (Corynebacterium xerosis) | ML score (Micrococcus luteus) | PA score (Pseudomonas aeruginosa) | IC50 (AtIspD; read-out: AtIspD IC50) [µM] | MS score (Mycobacterium smegmatis) | IC50 (LeIspE; read-out: LeIspE IC50) [µM] | CP score [1] | Bleaching (lettuce seeds; 0.5 mM) | Germination (lettuce seeds; 0.5 mM) | Root Dev. (lettuce seeds; 0.5 mM) | IC50 (AtIspF; read-out: AtIspF IC50) [mM] | BT score [2] | melting point [°C] | KP score (Klebsiella pneumonia) | LeIspE melting point change [3] [°C] | LeIspE melting temp [3] [°C] | BC score (Bacillus cereus) | MtIspD melting point change [4] [°C] | MtIspD melting temp [4] [°C] | other results |
| --- | --- | --- | --- | --- | --- | --- | --- | --- | --- | --- | --- | --- | --- | --- | --- | --- | --- | --- | --- | --- | --- |
| CCc1nnc(-c2cc3ccccc3[nH]2)o1 [HGN-250, 2-ethyl-5-(1H-indol-2-yl)-1,3,4-oxadiazole] | 0 | 0 | 0 | 0 | > 1000 | 0 | > 1000 | 0 | 0 | 1 | 0 | > 1 | 0 | 138 to 143 | 0 | −2.75 | 46.75 | 0 | 0.8 | 48.8 | Bleaching (lettuce seeds; 1.0 mM): 0; Germination (lettuce seeds; 1.0 mM): 3; Root Dev. (lettuce seeds; 1.0 mM): 0 |
| O=[N+]([O-])c1cc(-c2nnc(-c3nc4ccccc4s3)o2)cc([N+](=O)[O-])c1 [HGN-334, 2-(benzo[d]thiazol-2-yl)-5-(3,5-dinitrophenyl)-1,3,4-oxadiazole] | 0 | 0 | 0 | 0 |  | 0 |  | 0 |  |  |  |  | 0 | 180 to 185 | 0 | −1.50 | 48.00 | 0 | 0.0 | 48.0 | IC50 (AtIspD): > 500 µM; IC50 (LeIspE): > 500 µM; Bleaching (lettuce seeds; 0.15 mM): 0; Germination (lettuce seeds; 0.15 mM): 0; Root Dev. (lettuce seeds; 0.15 mM): 0; Bleaching (lettuce seeds; 0.3 mM): 0; Germination (lettuce seeds; 0.3 mM): 0; Root Dev. (lettuce seeds; 0.3 mM): 0; IC50 (AtIspF): > 0.5 mM |
| Cc1ccc(-c2nnc(-c3nc4ccccc4s3)o2)cc1 [HGN-338, 2-(benzo[d]thiazol-2-yl)-5-(p-tolyl)-1,3,4-oxadiazole] | 0 | 0 | 0 | 0 | > 500 | 0 | > 500 | 0 |  |  |  | > 0.5 | 0 | 155 to 160 | 0 | −1.50 | 48.00 | 0 | 0.0 | 48.0 | Bleaching (lettuce seeds; 0.15 mM): 0; Germination (lettuce seeds; 0.15 mM): 0; Root Dev. (lettuce seeds; 0.15 mM): 0; Bleaching (lettuce seeds; 0.3 mM): 0; Germination (lettuce seeds; 0.3 mM): 1; Root Dev. (lettuce seeds; 0.3 mM): 0 |
| Cc1nnc(-c2cc3ccccc3[nH]2)o1 [HGN-209, 2-(1H-indol-2-yl)-5-methyl-1,3,4-oxadiazole] | 0 | 0 | 0 | 0 | > 1000 | 0 | > 1000 | 0 | 0 | 1 | 1 | > 1 | 0 | 232 to 234 | 0 | −2.25 | 47.25 | 0 | 1.5 | 49.5 | Bleaching (lettuce seeds; 1.0 mM): 0; Germination (lettuce seeds; 1.0 mM): 2; Root Dev. (lettuce seeds; 1.0 mM): 1 |
| CC(C)c1nnc(-c2cc3ccccc3[nH]2)o1 [HGN-240, 2-(1H-indol-2-yl)-5-isopropyl-1,3,4-oxadiazole] | 0 | 0 | 0 | 0 | > 1000 | 0 | > 1000 | 0 | 0 | 1 | 0 | > 1 | 0 | 164 to 170 | 0 | −1.50 | 48.00 | 0 | 0.8 | 48.8 | Bleaching (lettuce seeds; 1.0 mM): 0; Germination (lettuce seeds; 1.0 mM): 2; Root Dev. (lettuce seeds; 1.0 mM): 0 |
| Clc1cccc(-c2nnc(-c3cc4ccccc4[nH]3)o2)c1 [HGN-241, 2-(3-chlorophenyl)-5-(1H-indol-2-yl)-1,3,4-oxadiazole] | 0 | 0 | 0 | 0 | > 1000 | 0 | 149 ± 41 | 0 |  |  |  | > 1 | 0 | 202 to 207 | 0 | −1.75 | 47.75 | 0 | 0.5 | 48.5 | Bleaching (lettuce seeds; 0.2 mM): 0; Germination (lettuce seeds; 0.2 mM): 1; Root Dev. (lettuce seeds; 0.2 mM): 0 |
| Clc1ccc(-c2nnc(-c3nc4ccccc4s3)o2)cc1 [HGN-339, 2-(benzo[d]thiazol-2-yl)-5-(4-chlorophenyl)-1,3,4-oxadiazole] | 0 | 0 | 0 | 0 | 158 | 0 | > 500 | 0 |  |  |  | > 0.5 | 0 | 161 to 163 | 0 | −2.00 | 47.50 | 0 | 1.3 | 49.3 | Bleaching (lettuce seeds; 0.15 mM): 0; Germination (lettuce seeds; 0.15 mM): 0; Root Dev. (lettuce seeds; 0.15 mM): 0; Bleaching (lettuce seeds; 0.3 mM): 0; Germination (lettuce seeds; 0.3 mM): 0; Root Dev. (lettuce seeds; 0.3 mM): 0 |
